In EP0326640B1, “(1R,5S,6S)-2-substituted thio-6 (R)-1-hydroxyethyl -1-methyl-carbapenem - carboxylic acid derivatives” (LEDERLE (JAPAN) LTD., priority 1987, dated 1989):
In brackets after ≈: the same amount, converted by molar mass.

Assays:
[1] = target: T1, Swine Kidney Dehydropeptidase-I (DHP-I) (Sus scrofa, UniProt P22412); assay: Hydrolysis activity against DHP-I enzyme substrate by late assay; format: in vitro ADME; conditions: substrate concentration 100 µM, 37°C, 10 minutes
T1 construct: made soluble by treatment with butanol and purified by the ammonium sulfate fraction method, thereby producing DHP-I enzyme from a 75% ammonium sulfate fraction; from tissue; host or cells: swine kidney
T1 sequence (P22412 17-384): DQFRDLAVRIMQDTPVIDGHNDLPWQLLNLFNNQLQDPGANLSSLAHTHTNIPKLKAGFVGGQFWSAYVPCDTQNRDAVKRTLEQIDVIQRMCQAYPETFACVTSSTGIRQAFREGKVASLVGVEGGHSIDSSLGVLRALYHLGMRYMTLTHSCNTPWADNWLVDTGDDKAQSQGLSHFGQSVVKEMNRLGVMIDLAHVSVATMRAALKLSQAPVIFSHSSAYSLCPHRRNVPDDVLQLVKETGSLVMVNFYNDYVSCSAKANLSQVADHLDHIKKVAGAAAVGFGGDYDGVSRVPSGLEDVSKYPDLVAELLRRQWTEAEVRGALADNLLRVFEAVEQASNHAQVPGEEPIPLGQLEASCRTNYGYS
Description: The swine kidney (8 kg) was homogenized and the enzyme protein was allowed to precipitate. After a connective lipid was removed with acetone, the resultant material was made soluble by treatment with butanol and purified by the ammonium sulfate fraction method, thereby producing DHP-I enzyme from a 75% ammonium sulfate fraction. The DHP-I enzyme was then adjusted to give an enzyme concentration of 25 mg/10 ml (phosphate buffer, pH 7.1), and divided into 1 ml portions. The portions were frozen and stored at -40°C or less until use. Glycyl dehydrophenylalanine (Gl-dh-Ph) and imipenem were employed as control compounds, and they were adjusted in situ each to give a concentration of 117 µM with the same sodium phosphate buffer solution. […] The solution was then incubated at 37°C for 10 minutes. The initial velocity of hydrolysis of the substrate was measured from a decrease in absorbency at a particular λmax of each of the substrates. A blank test was conducted in substantially the same manner as above by adding 0.2 ml of the sodium phosphate buffer solution (pH 7.1) to 1.2 ml of the above substrate.

[2] = test system: Proteus vulgaris HX-19; assay: Antibacterial test, agar plate dilution method (MIC), standard strains; format: cell-based; conditions: HX19; Proteus vulgaris HX-19; MH agar, 37°C, 18 hours; read-out: MIC
Description: (§1) The antibacterial activities were tested by an agar plate dilution method in accordance with the standard method of The Japanese Chemotherapy Society [Chemotherapy, Vol. 29, 76-79 (1981)].
(§2) A Mueller-Hinton (MH) agar liquid medium of a test microorganism was cultured overnight at 37°C and the resultant culture medium was diluted with a buffered saline gelatin (BSG) solution to contain approximately 10⁶ cells of the test microorganisms per milliliter, and then the diluted solution was inoculated with a microplanter at the rate of approximately 5 microliters on a MH agar medium containing a test compound. This medium was then incubated at 37°C for 18 hours. The minimum inhibitory concentration (MIC) is determined as a minimum concentration in which no test microorganism could grow. It is noted here that the test organisms used were all standard strains.

[3] = test system: Salmonella paratyphi 1015; assay: as above; format: cell-based; conditions: Salmonella enterica, MH agar, 37°C, 18 hours, read-out: MIC
Description: as §1, §2

[4] = test system: Salmonella schottmuelleri 8006; assay: as above; format: cell-based; conditions: MH agar, 37°C, 18 hours, read-out: MIC
Description: as §1, §2

[5] = test system: Pseudomonas aeruginosa IFO 3445; assay: as above; format: cell-based; conditions: IFO3445, MH agar, 37°C, 18 hours, read-out: MIC
Description: as §1, §2

[6] = test system: Proteus vulgaris OX-19; assay: as above; format: cell-based; conditions: OX19; Proteus vulgaris OX-19; MH agar, 37°C, 18 hours; read-out: MIC
Description: as §1, §2

[7] = test system: Serratia marcescens IAM1184; assay: as above; format: cell-based; conditions: Serratia marcescens, IAM1184, 18 h, MH agar, 37°C, read-out: MIC
Description: as §1, §2

[8] = test system: Pseudomanas aeruginosa NCTC 10940; assay: as above; format: cell-based; conditions: 18 h, MH agar, 37°C, read-out: MIC
Description: as §1, §2

[9] = test system: Proteus mirabilis IFO3849; assay: as above; format: cell-based; conditions: Proteus mirabilis, IFO3849, 18 h, Proteus mirabilis IFO3849; MH agar, 37°C, 18 hours; read-out: MIC
Description: as §1, §2

[10] = test system: Salmonella enteritidis G14; assay: as above; format: cell-based; conditions: Salmonella enterica, MH agar, 37°C, 18 hours, read-out: MIC
Description: as §1, §2

[11] = test system: Morganella morganii IFO3848; assay: as above; format: cell-based; conditions: Morganella morganii, IFO3848, 18 h, MH agar, 37°C, read-out: MIC
Description: as §1, §2

[12] = test system: Salmonella typhi 901; assay: as above; format: cell-based; conditions: Salmonella enterica, TYPHI, 18 h, MH agar, 37°C
Description: as §1, §2

[13] = test system: Providencia rettgeri IFO 3850; assay: as above; format: cell-based; conditions: Providencia rettgeri, IFO3850, 18 h, MH agar, 37°C, read-out: MIC
Description: as §1, §2

[14] = test system: Pseudomonas aeruginosa GN 918; assay: Antibacterial activity against clinically isolated β-lactamase (cephalosporinase) producing strains (MIC); format: cell-based; conditions: GN918; Pseudomonas aeruginosa GN 918; cephalosporinase producing strain, SDA, 18 to 20 hours; read-out: MIC
Description: (§3) The antibacterial activities against clinically isolated β-lactamase producing strains were tested by the agar plate dilution method in accordance with the standard method of The Japanese Chemotherapy Society [Chemotherapy, Vol. 29, 76-79 (1981)]. A solution of a cephalosporinase producing strain stored by Episome Research Institute, prepared by incubating the strain in a sensitivity test broth (STB; product of Nissui K. K.) for 18 hours, was diluted with a fresh STB solution so that the solution contained 10⁶ cells per milliliter. The diluted solution was then inoculated as spots in a microplanter on a sensitivity disk agar-N (SDA; product of Nissui K. K.) containing a test compound. The disk agar was then incubated for 18 to 20 hours. The minimum inhibitory concentration was determined as a minimum concentration in which the test microorganism no longer grew after a 18 to 20-hour incubation.

[15] = test system: Serratia marcescens L-65; assay: as above; format: cell-based; conditions: Serratia marcescens, L65, Serratia marcescens L-65; cephalosporinase producing strain, SDA, 18 to 20 hours; read-out: MIC
Description: as §3

[16] = test system: Pseudomonas aeruginosa GN 10362; assay: as above; format: cell-based; conditions: GN10362, cephalosporinase producing strain, SDA, 18 to 20 hours, read-out: MIC
Description: as §3

[17] = test system: Serratia marcescens GN 10857; assay: as above; format: cell-based; conditions: Serratia marcescens, GN10857, Serratia marcescens GN 10857; cephalosporinase producing strain, SDA, 18 to 20 hours; read-out: MIC
Description: as §3

[18] = test system: Klebsiella oxytoca GN 10650; assay: as above; format: cell-based; conditions: Klebsiella oxytoca, GN10650, Klebsiella oxytoca GN 10650; cephalosporinase producing strain, SDA, 18 to 20 hours; read-out: MIC
Description: as §3

[19] = test system: Proteus vulgaris GN 7919; assay: as above; format: cell-based; conditions: Proteus vulgaris, GN7919, Proteus vulgaris GN 7919; cephalosporinase producing strain, SDA, 18 to 20 hours; read-out: MIC
Description: as §3

[20] = test system: Citrobactor freundii GN 7391; assay: as above; format: cell-based; conditions: cephalosporinase producing strain, SDA, 18 to 20 hours
Description: as §3

[21] = test system: Pseudomonas cepacia GN 11164; assay: as above; format: cell-based; conditions: Burkholderia cepacia, GN11164, cephalosporinase producing strain, SDA, 18 to 20 hours, read-out: MIC
Description: as §3

[22] = test system: Serratia marcescens L-82; assay: as above; format: cell-based; conditions: L82, cephalosporinase producing strain, SDA, 18 to 20 hours, read-out: MIC
Description: as §3

[23] = test system: Pseudomonas aeruginosa GN 10367; assay: as above; format: cell-based; conditions: GN10367; Pseudomonas aeruginosa GN 10367; cephalosporinase producing strain, SDA, 18 to 20 hours; read-out: MIC
Description: as §3

[24] = test system: Citrobactor freundii GN 346; assay: as above; format: cell-based; conditions: cephalosporinase producing strain, SDA, 18 to 20 hours
Description: as §3

[25] = test system: Proteus vulgaris GN 4413; assay: as above; format: cell-based; conditions: Proteus vulgaris, GN4413, Proteus vulgaris GN 4413; cephalosporinase producing strain, SDA, 18 to 20 hours; read-out: MIC
Description: as §3

NCC(=O)NC(=Cc1ccccc1)C(=O)O [Gl-dh-Ph, Glycyl dehydrophenylalanine]
initial velocity of hydrolysis [1]: 17.4 µM/min

Cc1nnc(SCC2=C(C(=O)O)N3C(=O)[C@@H](NC(=O)Cn4cnnn4)[C@H]3SC2)s1 [CEZ, cefazolin]
MIC [2]: 6.25 µg/mL (≈ 13.8 µM) | MIC [3]: 1.56 µg/mL (≈ 3.43 µM) | MIC [4]: 0.78 µg/mL (≈ 1.72 µM) | MIC [5]: > 100 µg/mL | MIC [6]: 6.25 µg/mL (≈ 13.8 µM) | MIC [7]: > 100 µg/mL | MIC [8]: > 100 µg/mL | MIC [9]: 6.25 µg/mL (≈ 13.8 µM) | MIC [10]: 0.78 µg/mL (≈ 1.72 µM) | MIC [11]: 25 µg/mL (≈ 55 µM) | MIC [12]: 0.78 µg/mL (≈ 1.72 µM) | MIC [13]: 12.5 µg/mL (≈ 27.5 µM) | MIC [14]: 6.25 µg/mL (≈ 13.8 µM) | MIC [15]: 0.2 µg/mL (≈ 0.44 µM) | MIC [16]: 3.13 µg/mL (≈ 6.89 µM) | MIC [17]: 0.78 µg/mL (≈ 1.72 µM) | MIC [18]: 0.2 µg/mL (≈ 0.44 µM) | MIC [19]: 3.13 µg/mL (≈ 6.89 µM) | MIC [20]: >100 µg/mL | MIC [21]: 0.78 µg/mL (≈ 1.72 µM) | MIC [22]: 0.39 µg/mL (≈ 0.858 µM) | MIC [23]: 3.13 µg/mL (≈ 6.89 µM) | MIC [24]: 25 µg/mL (≈ 55 µM) | MIC [25]: 0.2 µg/mL (≈ 0.44 µM)
